Assay: Hydrolysis of FMS derivative in mouse plasma
Format: in vitro ADME
Conditions: 100 μM in mouse plasma at 37° C., after 28 hours, RP-HPLC
Method: Mouse plasma was incubated with 100 μM FMS-6-amino-4-(3-chlorophenylamino)quinazoline at 37° C. Samples were taken and analysed on RP-HPLC as described above in Example 1b) ii). The relative amounts of the two peaks were calculated. Chromatograms of samples taken at 0 (see FIG. 5), 5 (see FIG. 6) and 22 (see FIG. 7) hours show the relative change in the amount of the two compounds (i.e. FMS-6-amino-4-(3-chlorophenylamino)quinazoline vs 6-amino-4-(3-chlorophenylamino)quinazoline) in the plasma after incubation at 37° C.

Hydrolysis to 6-amino-4-(3-chlorophenylamino)quinazoline in mouse plasma: almost completely hydrolysed
Compound: O=C(Nc1ccc2ncnc(Nc3cccc(Cl)c3)c2c1)OCC1c2ccccc2-c2ccc(S(=O)(=O)O)cc21 (stereo not shown) [FMS-6-amino-4-(3-chlorophenylamino)quinazoline]
